# Experimental data taken from US9462808B2, “Pesticidal compositions” (Syngenta Participants AG, priority 2010, dated 2016).
# Where two headings read alike, the source gives them in different places.
# Key:
# Format in all cases: in vivo
# [1] = test system: Wheat, Triticium durum (Poaceae) var. Arina; assay: Reduction of phytotoxicity by safeners applied as seed treatment with compound of formula I on wheat (Example B4)
# Procedure: Test compounds: compound P1.2 according to Table P1, as SC 050; Safener 1=cloquintocet-mexyl, as WP 25, Safener 2=mefenpyr-diethyl as WP 25, Safener 3═N-(2-methoxybenzoyl)-4-[(methylaminocarbonyl)amino]benzenesulfonamide, as SC 100. • Plants: Wheat, Triticium durum (Poaceae) var. Arina • Seed treatment: The seeds were treated by shaking the seeds with a slurry for 30 seconds in a glass flask. Treatments were 10% overdosed to compensate for substance adhering to the flask. In a first step, compound P1.2 was treated on the seeds. Afterwards the safeners were treated on the dried seeds. […] The loading rates of the safeners were 0.5, 0.1 and 0.025 mg a.i./seed. Soil: “Drench soil”, loamy sand, prefertilised with 1 g/I soil of Landor 13.1.3.21. • Procedures: 9-cm pots were filled with 330 ml of Drench soil loamy sand and the seeds were placed into the soil in about 5 mm beneath the soil surface. • Conditions: During the growth period the plants were kept in a randomised fashion in a greenhouse chamber at 25° C. during daytime, 23° C. during night, 50-60% rH, a 14-hour photoperiod and artificial lighting when natural light fell below 20 kLux. During the exposure the assay was kept at 22° C. • Assessments: 14 days after emergence, the phytotoxicity was recorded.
# [2] = test system: Rhopalosiphum padi (cereal aphid); assay: Activity against Rhopalosiphum padi (cereal aphid) on wheat, spray with safener cloquintocet, 6 days after application (Example B1); conditions: 144 h, test compound 25 ppm, adjuvant Mero 0.1% v/v, 6 days after application, Abbott's formula, read-out: Efficacy (% mortality) against cereal aphids (Rhopalosiphum padi)
# Procedure: One replicate consisted of 4 wheat plants per pot. […] 9 days after seeding all wheat plants (10replicates) were sprayed with respective test solutions. […] 6 days after application aphid mortality and phytotoxicity were evaluated. […] Additionally the average plant height per replicate was measured.
# [3] = test system: Nilaparvata lugens (brown plant hopper, BPH); assay: Activity against Nilaparvata lugens (brown plant hopper, BPH) on rice, spray with safeners, 7 d after application (Example B2); conditions: 168 h, read-out: % mortality, corr.; for mortality at 25 ppm: 25 ppm AI; for mortality at 50 ppm: 50 ppm AI; for mortality at 100 ppm: 100 ppm AI; for mortality at 200 ppm: 200 ppm AI
# Procedure: Eight replicates (pots with rice plants) were sprayed with respective test solutions. Test solutions contained the formulated test compound and the safener cloquintocet and N-(2-methoxybenzoyl)-4-[(methylaminocarbonyl)amino]-benzenesulfonamide at different ratios. 4 pots were infested with plant hopper nymphs right after application. 7d after application BPH mortality and plant safety were evaluated. […] Assessment on plant safety was done by measuring the average plant height per replicate.
# [4] = test system: Rhopalosiphum padi (cereal aphid); assay: Activity against Rhopalosiphum padi (cereal aphid) on wheat, selected safeners at different mixture ratios, 7 DAA (Example B3); conditions: AI rate 12.5 ppm
# Procedure: One replicate consisted of 4 wheat plants per pot. […] Test solutions contained the formulated test compounds, the adjuvant Mero (0.1% v/v), and selected safeners at different mixture ratios. 7d after application aphid mortality and was evaluated.
smiles,measurement,setting,value
"CCOC(=O)OC1=C(c2c(C)cc(C)cc2C)C(=O)N(C)C12CCN(OC)CC2 [Compound P1.2, Carbonic acid ethyl ester 8-methoxy-1-methyl-2-oxo-3-(2,4,6-trimethyl-phenyl)-1,8-diaza-spiro[4.5]dec-3-en-4-yl ester]",Phytotoxicity after seed treatment,"[1]; P1.2 0.1 mg a.i./seed with safeners (cloquintocet-mexyl, mefenpyr-diethyl, N-(2-methoxybenzoyl)-4-[(methylaminocarbonyl)amino]benzenesulfonamide), wheat, 14 days after emergence",safeners protect the plants from the adverse effects
same,"Phytotoxicity (%) of compound P1.2 on wheat, control without safener","[1]; seed treatment, 1 mg compound P1.2, without safener",Control: application of 1 mg compound P1.2. without safener results in 64.3% phyotoxicity
same,mortality at 25 ppm,"[2]; ratio AI:safener cell blank (no safener), wheat",97.4%
same,mortality at 25 ppm,"[2]; safener cloquintocet, ratio AI:safener 1:1, wheat",93.4%
same,mortality at 25 ppm,"[2]; safener cloquintocet, ratio AI:safener 1:2, wheat",94.4%
same,mortality at 12.5 ppm,"[3]; 12.5 ppm AI, Safener 2, ratio AI:safener 0.9:1, 7 d after application",0%
same,mortality at 25 ppm,"[3]; Cloquintocet, ratio AI:safener 1.9:1, 7 d after application",30%
same,mortality at 25 ppm,"[3]; Safener 2, ratio AI:safener 1.9:1, 7 d after application",3%
same,mortality at 50 ppm,"[3]; Cloquintocet, ratio AI:safener 1.25:1, 7 d after application",57%
same,mortality at 50 ppm,"[3]; Safener 2, ratio AI:safener 1.25:1, 7 d after application",42%
same,mortality at 100 ppm,"[3]; Cloquintocet, ratio AI:safener 7.5:1, 7 d after application",78%
same,mortality at 100 ppm,"[3]; Safener 2, ratio AI:safener 7.5:1, 7 d after application",68%
same,mortality at 200 ppm,"[3]; Cloquintocet, ratio AI:safener 15:1, 7 d after application",93%
same,mortality at 200 ppm,"[3]; Safener 2, ratio AI:safener 15:1, 7 d after application",85%
same,Efficacy (% mortality) against cereal aphids (Rhopalosiphum padi) 7DAA,"[4]; + Cloquintocet-mexyl, ratio AI:safener 1:2",94%
same,Efficacy (% mortality) against cereal aphids (Rhopalosiphum padi) 7DAA,"[4]; + Cloquintocet-mexyl, ratio AI:safener 1:4",91%
same,Efficacy (% mortality) against cereal aphids (Rhopalosiphum padi) 7DAA,"[4]; + Cloquintocet-mexyl, ratio AI:safener 1:8",91%
same,Efficacy (% mortality) against cereal aphids (Rhopalosiphum padi) 7DAA,"[4]; + Mefenpyr-diethyl, ratio AI:safener 1:2",97%
same,Efficacy (% mortality) against cereal aphids (Rhopalosiphum padi) 7DAA,"[4]; + Mefenpyr-diethyl, ratio AI:safener 1:4",92%
same,Efficacy (% mortality) against cereal aphids (Rhopalosiphum padi) 7DAA,"[4]; + Mefenpyr-diethyl, ratio AI:safener 1:8",92%
same,Efficacy (% mortality) against cereal aphids (Rhopalosiphum padi) 7DAA,"[4]; + Safener 2 (N-(2-methoxybenzoyl)-4-[(methylaminocarbonyl)amino]benzenesulfonamide), ratio AI:safener 1:2",97%
same,Efficacy (% mortality) against cereal aphids (Rhopalosiphum padi) 7DAA,"[4]; + Safener 2 (N-(2-methoxybenzoyl)-4-[(methylaminocarbonyl)amino]benzenesulfonamide), ratio AI:safener 1:4",95%
same,Efficacy (% mortality) against cereal aphids (Rhopalosiphum padi) 7DAA,"[4]; + Safener 2 (N-(2-methoxybenzoyl)-4-[(methylaminocarbonyl)amino]benzenesulfonamide), ratio AI:safener 1:8",97%
same,Efficacy (% mortality) against cereal aphids (Rhopalosiphum padi) 7DAA,"[4]; no safener, spray on wheat, Abbott's formula",98%
